# Experimental data reported in patent publication US20080206231A1, “Compositions and Methods for Treating Disease” (OREGON HEALTH AND SCIENCE UNIVERSITY, priority 2004, published 2008).
# Key:
# 3T3 parental cells = assay: Herstatin cell binding ELISA on parental cells; conditions: NIH-3T3 parental cells, 2 hrs on ice
# Protocol: (§1) ELISA. Monolayer cultures of ˜2×10^6 cells were plated in 6-well tissue culture plates, and were incubated with purified Herstatin for 2 hours at 4° C. in serum-free DMEM. Cells were washed with Phosphate Buffered Saline (PBS) and extracted in 50 mM Tris·HCl, pH 7.0, 1.0% NP-40. Herstatin bound to cells were quantified using a sandwich Herstatin ELISA per manufacturer's instructions (Upstate Biotechnology, Lake Placid, N.Y.).
# (§2) The dissociation constant (KD) and maximal binding (Bmax) of Herstatin were determined by nonlinear regression analysis of the plot of pmol of bound versus nM of Herstatin added. Statistical comparisons between different binding curves were performed by extra sums-of-squares F-test nonlinear regression coefficients. All tests were performed (α=0.05) using GraphPad™ Prism 4™ software (GraphPad™ Software, 1994-2003).
# (§3) Results. The interaction between Herstatin and IR was investigated. […] Increasing concentrations of Herstatin, expressed and purified from stably-transfected S2 insect cells, were added to 3T3 parental cells (filled triangles; “NIH-3T3”) or 3T3 cells transfected with a human IR cDNA (filled squares; “IRA-3T3”) as previously described (Shamieh et al., FEBS Letters, 568:163-166, 2004). After incubation for 2 hrs on ice, the cells were washed twice with PBS, and the bound Herstatin was quantified using a Herstatin ELISA (Upstate). […]
# P13K/Akt pathway = assay: Insulin-stimulated Akt activation in MCF-7 cells; assay type: cell-based, human; conditions: Herstatin-expressing MCF-7 cells vs control
# Protocol: Western blot analysis, and antibodies. For Western blot analyses, whole-cell lysates or immunoprecipitated proteins were resolved by SDS-PAGE and transferred onto nitrocellulose membranes (BioRad, Hercules, Calif.). Blots were blocked in 5% milk and incubated with primary antibody overnight at 4° C. The antibodies included anti-insulin receptor (IR; against the β subunit), anti-IGF-IR, anti-IRS-1, anti-IRS-2, anti-phosphotyrosine, anti-phospho-Akt, anti-Akt, anti-phospho-ERK, anti-ERK, and anti-Shc antibodies (Santa Cruz Biotechnology, Transduction Laboratories, Cell Signaling Technologies, Upstate Laboratories, or Biosource). […]
# Results. […] Insulin was then added to the control and Herstatin-expressing cells and whole-cell lysates were prepared at the indicated times and processed directly for Western immunoblots with anti-insulin receptor (IR), phospho-Akt, Akt, phospho-ERK, and ERK antibodies, or first immunoprecipitated with anti-IR antibody and immunoprecipitates (IP) then analyzed by Western immunoblotting with anti-phosphotyrosine and anti-IR antibodies after transfer to nitrocellulose membranes. Following incubation of blots with primary antibodies, immunoreactive proteins were detected by enhanced chemiluminescence after a secondary incubation with HRP-conjugated secondary antisera. […]
# IGF-IR = target: T1, IGF-IR (Homo sapiens, UniProt P08069); assay: IGF-IR expression, Western immunoblot in MCF-7 cells; assay type: cell-based; conditions: Herstatin-expressing MCF-7 cells vs control
# T1 construct: Lysates from control and Herstatin-expressing MCF-7 cells were prepared from respective untreated (no insulin) cells; endogenous in cells; host or cells: MCF-7 (control and Herstatin-expressing clones)
# Protocol: (§4) Western blot analysis, and antibodies. For Western blot analyses, whole-cell lysates or immunoprecipitated proteins were resolved by SDS-PAGE and transferred onto nitrocellulose membranes (BioRad, Hercules, Calif.). Blots were blocked in 5% milk and incubated with primary antibody overnight at 4° C. The antibodies included anti-insulin receptor (IR; against the β subunit), anti-IGF-IR, anti-IRS-1, anti-IRS-2, anti-phosphotyrosine, anti-phospho-Akt, anti-Akt, anti-phospho-ERK, anti-ERK, and anti-Shc antibodies (Santa Cruz Biotechnology, Transduction Laboratories, Cell Signaling Technologies, Upstate Laboratories, or Biosource). After washing, the blots were incubated with secondary antibody conjugated to HRP for 30 min (BioRad, Hercules, Calif.). The membranes were developed with SuperSignal™ West Dura (Pierce, Rockford, Ill.) and exposed to x-ray film.
# (§5) Results. […] Lysates from control and Herstatin-expressing MCF-7 cells were prepared from respective untreated (no insulin) cells following overnight incubation in serum-free media, and processed directly or (in the case of the IR) also immunoprecipitated prior to Western immunoblot analysis as described in relation to FIG. 2.
# [1] = tested on: IRS-1, IRS-2, Shc, ERK1 and ERK2; assay: Expression/phosphorylation state of insulin signaling proteins (IRS-1, IRS-2, Shc, ERK) in MCF-7 cells; assay type: cell-based, human; conditions: Herstatin-expressing MCF-7 cells vs control, no insulin
# Protocol: as §4, §5
# insulin receptor (IR) [2] = target: T2, insulin receptor (IR) (Homo sapiens, UniProt P06213); assay: Herstatin cell binding ELISA on IRA-3T3 cells; parameters: expressed in transfected cells; host or cells: NIH-3T3 (IRA-3T3); conditions: 3T3 cells transfected with human IR cDNA (IRA-3T3), purified Herstatin from S2 insect cells, 2 hrs on ice
# Protocol: as §1, §2, §3
# insulin receptor (IR) [3] = target: T2, insulin receptor (IR); assay: IR expression and activation, Western immunoblot in MCF-7 cells; assay type: cell-based; parameters: whole-cell lysates were prepared at the indicated times and processed directly for Western immunoblots with anti-insulin receptor (IR); endogenous in cells; host or cells: MCF-7 (control and Herstatin-expressing clones)
# Protocol: as §4
# Methods. Cell lines, expression vectors, protein purification, pull down assays, antibodies, Western blot analysis and ELISA assays were as described under EXAMPLE I, herein above. Insulin was added either to MCF-7 breast carcinoma cells, or to an MCF-7 cell line stably transfected with a Herstatin expression vector, to determine whether Herstatin expression affects IR expression, and/or insulin-stimulated IR signal transduction.
# Results. […] Control and Herstatin-expressing MCF-7 cells were grown in complete medium prior to an overnight incubation in serum-free medium. Insulin was then added to the control and Herstatin-expressing cells and whole-cell lysates were prepared at the indicated times and processed directly for Western immunoblots with anti-insulin receptor (IR), phospho-Akt, Akt, phospho-ERK, and ERK antibodies, or first immunoprecipitated with anti-IR antibody and immunoprecipitates (IP) then analyzed by Western immunoblotting with anti-phosphotyrosine and anti-IR antibodies after transfer to nitrocellulose membranes. Following incubation of blots with primary antibodies, immunoreactive proteins were detected by enhanced chemiluminescence after a secondary incubation with HRP-conjugated secondary antisera. […]
# MAPK kinase (MEK) = conditions: Harmon et al., 2004; cited from earlier work
# insulin signaling = assay: EGFR inhibitor study: insulin signaling (ERK and Akt/PKB activation) in control MCF-7 cells; assay type: cell-based, human; conditions: inhibitor 5 minutes prior to 10 nM insulin, FIG. 5
# Protocol: (§6) Control MCF-7 cells were serum-starved overnight and treated with the EGFR kinase inhibitor AG1478 (Sigma) or vehicle (DMSO) for 5 minutes prior to the addition of 14 nM EGF or 10 nM insulin (Sigma). After growth factor treatment, cell lysates were prepared and analyzed for ERK and Akt/PKB activation as described above. The 24-hour treatment was done in regular growth medium.
# insulin receptor = assay: EGFR inhibitor study: insulin receptor level in MCF-7 cells; assay type: cell-based, human; conditions: 24-hour treatment in regular growth medium, FIG. 6
# Protocol: as §6
# [4] = Herstatin-expressing MCF-7 cells vs control MCF-7
compound,measurement,setting,value
"Herstatin: secreted product of an HER-2 alternative transcript; cell surface receptor isoform (intron fusion protein), polypeptides of SEQ ID NO:2",Herstatin binding to 3T3 parental cells,3T3 parental cells,but not to 3T3 parental cells
same,effect on insulin-stimulated activation of the P13K/Akt pathway,P13K/Akt pathway,little effect
same,decrease in IGF-IR expression,IGF-IR,~4 fold
same,IRS-2 levels,[1],slight decrease
same,apparent serine phosphorylation of IRS-2,[1],decrease
same,apparent serine phosphorylation state of IRS-1,[1],decrease
same,relative expression of Shc isoforms,[1],alters the relative expression of Shc isoforms
same,relative expression ratio of ERK1 and ERK2,[1],increases the relative expression ratio of ERK1 and ERK2
same,Herstatin binding to cells expressing IR,insulin receptor (IR) [2],binds at nM concentrations
same,accumulation of pro-IR,insulin receptor (IR) [3]; [4],induce the accumulation of pro-IR
same,up-regulation of basal IR expression,insulin receptor (IR) [3]; [4],several-fold
same,IR activation by insulin,"insulin receptor (IR) [3]; Herstatin-expressing MCF-7 cells, insulin added after overnight serum-free, anti-phosphotyrosine blot of IR IP",up-regulated IR activation
COc1cccc(-c2cc(=O)c3ccccc3o2)c1N [PD-98059],inhibition of insulin-stimulated glucose uptake,MAPK kinase (MEK),significant inhibition
COc1cc2ncnc(Nc3cccc(Cl)c3)c2cc1OC [AS1478],effect on insulin signaling,insulin signaling,did not affect insulin signaling
same,increase in insulin receptor (IR),insulin receptor,does not Affect Insulin Signaling or Lead to an Increase in IR
N#CC(=C(/N)Sc1ccccc1N)/C(C#N)=C(/N)Sc1ccccc1N [U-0216],inhibition of insulin-stimulated glucose uptake,MAPK kinase (MEK),significant inhibition
